In general, EC50 refers to the midpoint of the concentration-response curve. A lower EC50 goes with an effect from little substance. As usually defined, the melting point is the temperature, or range, at which the solid turns liquid.

The source of these data is patent US7105551B2, “Thiazole derivatives for treating PPAR related disorders” (SmithKline Beecham Corporation, priority 2000, dated 2006).

Data set [1] addresses T1, hPPAR δ (Homo sapiens, UniProt Q03181).
T1 construct: expressed in transfected cells; host or cells: CV-1 cells
T1 sequence (Q03181 211-439 limits assumed): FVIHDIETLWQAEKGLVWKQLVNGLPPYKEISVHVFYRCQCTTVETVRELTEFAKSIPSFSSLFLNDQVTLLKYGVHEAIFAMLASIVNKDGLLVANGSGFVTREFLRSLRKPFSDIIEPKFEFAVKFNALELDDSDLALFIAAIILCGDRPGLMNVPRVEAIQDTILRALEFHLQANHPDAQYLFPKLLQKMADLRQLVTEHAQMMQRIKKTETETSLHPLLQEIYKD
The experiment in a line: Transient transfection (transactivation) assay in CV-1 cells, hPPAR delta. The data set is classed as cell-based. The following applies: GAL4 chimeric receptor, SPAP reporter. An excerpt:
(§1) Compounds were screened for functional potency in transient transfection assays in CV-1 cells for their ability to activate the PPAR subtypes (transactivation assay). A previously established chimeric receptor system was utilized to allow comparison of the relative transcriptional activity of the receptor subtypes on the same target gene and to prevent endogenous receptor activation from complicating the interpretation of results. […] The ligand binding domains for murine and human PPAR alpha, PPAR gamma, and PPAR delta were each fused to the yeast transcription factor GAL4 DNA binding domain. CV-1 cells were transiently transfected with expression vectors for the respective PPAR chimera along with a reporter construct containing five copies of the GAL4 DNA binding site driving expression of secreted placental alkalin phosphatase (SPAP) and beta-galactosidase. After 16 h, the medium was exchanged to DME medium supplemented with 10% delipidated fetal calf serum and th test compound at the appropriate concentration. After an additional 24 h, cell extracts were prepared and assayed for alkaline phosphatase and β-galactosidase activity. […] The positive control in the hPPAR alpha assays was 2-methyl-2-[4-{[(4-methyl-2-[4-trifluoromethylphenyl]-thiazol-5-yl-carbonyl)amino]methyl}-phenoxy]propionic acid. The positive control for PPAR delta assays was 2-{2-methyl-4-[({4-methyl-2-{trifluoromethyl)phenyl]-1,3-thiazol-5-yl}methyl)sulfanyl]phenoxy}acetic acid.

Data set [2] has as its target T2, hPPAR α (Homo sapiens, UniProt Q07869).
T2 construct: expressed in transfected cells; host or cells: CV-1 cells
T2 sequence (Q07869 239-466 limits assumed): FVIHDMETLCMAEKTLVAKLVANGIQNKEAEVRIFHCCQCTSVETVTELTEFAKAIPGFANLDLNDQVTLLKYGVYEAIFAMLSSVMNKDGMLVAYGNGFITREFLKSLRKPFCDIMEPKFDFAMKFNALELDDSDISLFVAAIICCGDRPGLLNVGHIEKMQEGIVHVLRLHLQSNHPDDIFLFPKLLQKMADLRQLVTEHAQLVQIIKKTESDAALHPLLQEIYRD
The experiment in a line: Transient transfection (transactivation) assay in CV-1 cells, hPPAR alpha. Particulars: GAL4 chimeric receptor, SPAP reporter. The data set is classed as cell-based.
Source text: as §1

The target of data set [3] is T3, hPPAR γ (Homo sapiens, UniProt P37231).
T3 construct: expressed in transfected cells; host or cells: CV-1 cells
T3 sequence (P37231 238-503 limits assumed): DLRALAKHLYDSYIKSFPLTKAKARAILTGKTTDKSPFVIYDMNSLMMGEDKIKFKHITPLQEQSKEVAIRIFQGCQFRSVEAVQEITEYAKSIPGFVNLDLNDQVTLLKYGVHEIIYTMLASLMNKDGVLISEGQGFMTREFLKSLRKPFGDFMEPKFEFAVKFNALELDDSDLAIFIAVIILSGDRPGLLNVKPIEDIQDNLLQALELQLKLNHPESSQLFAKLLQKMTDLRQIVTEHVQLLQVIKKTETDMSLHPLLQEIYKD
In words: Transient transfection (transactivation) assay in CV-1 cells, hPPAR gamma. The following applies: GAL4 chimeric receptor, SPAP reporter. The data set is classed as cell-based.
Source text: as §1

As for `Cc1cc(O[C@@H](C)c2sc(-c3ccc(C(F)(F)F)cc3)nc2C)ccc1OC(C)(C)C(=O)O` [Example 9, (S)-2-methyl-2-(2-methyl-4-{1-[4-methyl-2-(4-trifluoromethylphenyl)-thiazol-5-yl]ethoxy}-phenoxy)-propionic acid], the figures for the EC50 in data set [1], in data set [2] and in data set [3] were 3 nM, 16 nM and 7000 nM, respectively.

With `Cc1cc(O[C@H](C)c2sc(-c3ccc(C(F)(F)F)cc3)nc2C)ccc1OC(C)(C)C(=O)O` [Example 11, (R)-2-methyl-2-(2-methyl-4-{1-[4-methyl-2-(4-trifluoromethylphenyl)-thiazol-5-yl]ethoxy}-phenoxy)-propionic acid], the EC50 worked out at 0.7 nM in data set [1], 10 nM in data set [2] and 300 nM in data set [3].

In turn, `Cc1cc(OC(C)c2sc(-c3ccc(C(F)(F)F)cc3F)nc2C)ccc1OC(C)(C)C(=O)O` (stereo not shown) [Example 19, 2-(4-{1-[2-(2-fluoro-4-trifluoromethyl-phenyl)-4-methyl-thiazol-5-yl]-ethoxy}-2-methyl-phenoxy)-2-methyl-propionic acid] had a melting point of 133 °C.

Regarding `CC[C@@H](Oc1ccc(OC(C)(C)C(=O)O)c(C)c1)c1sc(-c2ccc(C(F)(F)F)cc2)nc1C` [Example 29, (R)-2-methyl-2-(2-methyl-4-{1-[4-methyl-2-(4-trifluoromethyl-phenyl)thiazol-5-yl]propoxy}-phenoxy)-propionic acid], the EC50 is 1.5 nM in data set [1], 9 nM in data set [2] and 240 nM in data set [3].

Turning to `CC[C@H](Oc1ccc(OC(C)(C)C(=O)O)c(C)c1)c1sc(-c2ccc(C(F)(F)F)cc2)nc1C` [Example 31, (S)-2-methyl-2-(2-methyl-4-{1-[4-methyl-2-(4-trifluoromethyl-phenyl)-thiazol-5-yl]propoxy}-phenoxy)-propionic acid], the results for the EC50 in data set [1], in data set [2] and in data set [3] were 1.7 nM, 5 nM and 660 nM, respectively.
